# According to the supplement of paper PMC10733146:
# Assays:
# Experiment in all cases: viability relative to DMSO control (fraction); higher = less drug effect (more viable cells)
# Conditions in all cases: 48 h
# [1] = test system: primary AML patient cells (S006)
# In short: (§1)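 Viability is given as CellTiter-Glo luminescence relative to the median of 16 inner DMSO wells. Fresh or cryopreserved primary mononuclear tumour cells from blood, bone marrow (both Ficoll-isolated) or processed lymph node were plated at 4 × 10^4 cells per well in 384-well plates against five pre-plated compound concentrations, one well each. Incubation lasted 48 h at 37 °C and 5% CO2 in RPMI-1640 with penicillin/streptomycin, L-glutamine and human serum.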
# [2] = test system: primary ALL patient cells (S088)
# In short: as §1
# [3] = test system: primary CLL patient cells (S043)
# In short: as §1
# [4] = test system: primary CLL patient cells (S031)
# In short: as §1
# [5] = test system: primary DLBCL patient cells (S076)
# In short: as §1
# [6] = test system: primary AML patient cells (S072)
# In short: as §1
# [7] = test system: primary MCL patient cells (S063)
# In short: as §1
# [8] = test system: primary AML patient cells (S089)
# In short: as §1
# [9] = test system: primary AML patient cells (S060)
# In short: as §1
# [10] = test system: primary T-NHL patient cells (S058)
# In short: as §1
# [11] = test system: primary AML patient cells (S071)
# In short: as §1
# [12] = test system: primary AML patient cells (S079)
# In short: as §1
# [13] = test system: primary DLBCL patient cells (S049)
# In short: as §1
# [14] = test system: primary AML patient cells (S055)
# In short: as §1
# [15] = test system: primary AML patient cells (S056)
# In short: as §1
# [16] = test system: primary ALL patient cells (S048)
# In short: as §1
# [17] = test system: primary DLBCL patient cells (S082)
# In short: as §1
compound,measurement,setting,value
C/C=C1\NC(=O)[C@H]2CSSCC/C=C/[C@H](CC(=O)N[C@H](C(C)C)C(=O)N2)OC(=O)[C@H](C(C)C)NC1=O [Romidepsin],viability,[1]; 0.00032 µM,1
same,viability,[1]; 0.0016 µM,0.911
same,viability,[1]; 0.008 µM,0.477
same,viability,[1]; 0.04 µM,0.127
same,viability,[1]; 0.2 µM,0.0886
same,viability,[2]; 0.00032 µM,0.851
same,viability,[2]; 0.0016 µM,0.577
same,viability,[2]; 0.008 µM,0.123
same,viability,[2]; 0.04 µM,0.0858
same,viability,[2]; 0.2 µM,0.0855
same,viability,[3]; 0.00032 µM,0.92
same,viability,[3]; 0.0016 µM,0.83
same,viability,[3]; 0.008 µM,0.369
same,viability,[3]; 0.04 µM,0.0933
same,viability,[3]; 0.2 µM,0.084
same,viability,[4]; 0.00032 µM,1.07
same,viability,[4]; 0.0016 µM,0.717
same,viability,[4]; 0.008 µM,0.0898
same,viability,[4]; 0.04 µM,0.061
same,viability,[4]; 0.2 µM,0.0838
same,viability,[5]; 0.00032 µM,1.06
same,viability,[5]; 0.0016 µM,0.614
same,viability,[5]; 0.008 µM,0.264
same,viability,[5]; 0.04 µM,0.188
same,viability,[5]; 0.2 µM,0.184
same,viability,[6]; 0.00032 µM,0.97
same,viability,[6]; 0.0016 µM,0.671
same,viability,[6]; 0.008 µM,0.243
same,viability,[6]; 0.04 µM,0.192
same,viability,[6]; 0.2 µM,0.187
same,viability,[7]; 0.00032 µM,0.923
same,viability,[7]; 0.0016 µM,0.968
same,viability,[7]; 0.008 µM,0.0338
same,viability,[7]; 0.04 µM,0.0187
same,viability,[7]; 0.2 µM,0.0209
same,viability,[8]; 0.00032 µM,0.932
same,viability,[8]; 0.0016 µM,0.979
same,viability,[8]; 0.008 µM,0.302
same,viability,[8]; 0.04 µM,0.0361
same,viability,[8]; 0.2 µM,0.0536
same,viability,[9]; 0.00032 µM,1.07
same,viability,[9]; 0.0016 µM,1.05
same,viability,[9]; 0.008 µM,0.464
same,viability,[9]; 0.04 µM,0.0458
same,viability,[9]; 0.2 µM,0.045
same,viability,[10]; 0.00032 µM,0.992
same,viability,[10]; 0.0016 µM,0.651
same,viability,[10]; 0.008 µM,0.365
same,viability,[10]; 0.04 µM,0.295
same,viability,[10]; 0.2 µM,0.315
same,viability,[11]; 0.00032 µM,0.887
same,viability,[11]; 0.0016 µM,0.626
same,viability,[11]; 0.008 µM,0.209
same,viability,[11]; 0.04 µM,0.187
same,viability,[11]; 0.2 µM,0.182
same,viability,[12]; 0.00032 µM,0.978
same,viability,[12]; 0.0016 µM,0.85
same,viability,[12]; 0.008 µM,0.269
same,viability,[12]; 0.04 µM,0.31
same,viability,[12]; 0.2 µM,0.304
same,viability,[13]; 0.00032 µM,0.886
same,viability,[13]; 0.0016 µM,0.0597
same,viability,[13]; 0.008 µM,0.026
same,viability,[13]; 0.04 µM,0.0248
same,viability,[13]; 0.2 µM,0.0226
same,viability,[14]; 0.00032 µM,0.981
same,viability,[14]; 0.0016 µM,0.941
same,viability,[14]; 0.008 µM,0.524
same,viability,[14]; 0.04 µM,0.145
same,viability,[14]; 0.2 µM,0.072
same,viability,[15]; 0.00032 µM,0.924
same,viability,[15]; 0.0016 µM,0.89
same,viability,[15]; 0.008 µM,0.156
same,viability,[15]; 0.04 µM,0.0512
same,viability,[15]; 0.2 µM,0.0574
same,viability,[16]; 0.00032 µM,0.791
same,viability,[16]; 0.0016 µM,0.184
same,viability,[16]; 0.008 µM,0.0722
same,viability,[16]; 0.04 µM,0.0497
same,viability,[16]; 0.2 µM,0.0502
same,viability,[17]; 0.00032 µM,1.02
same,viability,[17]; 0.0016 µM,0.878
same,viability,[17]; 0.008 µM,0.111
same,viability,[17]; 0.04 µM,0.0272
same,viability,[17]; 0.2 µM,0.029
N#CC[C@H](C1CCCC1)n1cc(-c2ncnc3[nH]ccc23)cn1 [Ruxolitinib],viability,[1]; 0.024 µM,1.04
same,viability,[1]; 0.12 µM,0.921
same,viability,[1]; 0.6 µM,0.963
same,viability,[1]; 3 µM,0.904
same,viability,[1]; 15 µM,0.656
same,viability,[2]; 0.024 µM,0.974
same,viability,[2]; 0.12 µM,0.912
same,viability,[2]; 0.6 µM,0.994
same,viability,[2]; 3 µM,0.986
same,viability,[2]; 15 µM,0.94
same,viability,[3]; 0.024 µM,0.915
same,viability,[3]; 0.12 µM,1.05
same,viability,[3]; 0.6 µM,0.938
same,viability,[3]; 3 µM,1.05
same,viability,[3]; 15 µM,0.966
same,viability,[4]; 0.024 µM,1.06
same,viability,[4]; 0.12 µM,1
same,viability,[4]; 0.6 µM,1.04
same,viability,[4]; 3 µM,0.896
same,viability,[4]; 15 µM,0.689
same,viability,[5]; 0.024 µM,1.05
same,viability,[5]; 0.12 µM,0.823
same,viability,[5]; 0.6 µM,0.82
same,viability,[5]; 3 µM,0.702
same,viability,[5]; 15 µM,0.719
same,viability,[6]; 0.024 µM,1.04
same,viability,[6]; 0.12 µM,0.925
same,viability,[6]; 0.6 µM,0.873
same,viability,[6]; 3 µM,0.913
same,viability,[6]; 15 µM,0.883
same,viability,[7]; 0.024 µM,1.02
same,viability,[7]; 0.12 µM,0.939
same,viability,[7]; 0.6 µM,0.975
same,viability,[7]; 3 µM,0.932
same,viability,[7]; 15 µM,0.875
same,viability,[8]; 0.024 µM,0.658
same,viability,[8]; 0.12 µM,0.804
same,viability,[8]; 0.6 µM,0.603
same,viability,[8]; 3 µM,0.686
same,viability,[8]; 15 µM,0.704
same,viability,[9]; 0.024 µM,0.992
same,viability,[9]; 0.12 µM,0.932
same,viability,[9]; 0.6 µM,0.924
same,viability,[9]; 3 µM,0.919
same,viability,[9]; 15 µM,0.896
same,viability,[10]; 0.024 µM,0.983
same,viability,[10]; 0.12 µM,0.887
same,viability,[10]; 0.6 µM,0.924
same,viability,[10]; 3 µM,0.904
same,viability,[10]; 15 µM,0.8
same,viability,[11]; 0.024 µM,1.01
same,viability,[11]; 0.12 µM,0.988
same,viability,[11]; 0.6 µM,0.956
same,viability,[11]; 3 µM,0.944
same,viability,[11]; 15 µM,0.744
same,viability,[12]; 0.024 µM,0.979
same,viability,[12]; 0.12 µM,0.845
same,viability,[12]; 0.6 µM,0.808
same,viability,[12]; 3 µM,0.774
same,viability,[12]; 15 µM,0.724
same,viability,[13]; 0.024 µM,1.03
same,viability,[13]; 0.12 µM,0.91
same,viability,[13]; 0.6 µM,0.994
same,viability,[13]; 3 µM,0.981
same,viability,[13]; 15 µM,1
same,viability,[14]; 0.024 µM,1.01
same,viability,[14]; 0.12 µM,0.961
same,viability,[14]; 0.6 µM,1
same,viability,[14]; 3 µM,1.03
same,viability,[14]; 15 µM,1.05
same,viability,[15]; 0.024 µM,0.954
same,viability,[15]; 0.12 µM,0.894
same,viability,[15]; 0.6 µM,0.814
same,viability,[15]; 3 µM,0.891
same,viability,[15]; 15 µM,0.69
same,viability,[16]; 0.024 µM,1.03
same,viability,[16]; 0.12 µM,0.945
same,viability,[16]; 0.6 µM,0.963
same,viability,[16]; 3 µM,0.988
same,viability,[16]; 15 µM,0.852
same,viability,[17]; 0.024 µM,1.01
same,viability,[17]; 0.12 µM,0.904
same,viability,[17]; 0.6 µM,1.03
same,viability,[17]; 3 µM,1.04
same,viability,[17]; 15 µM,0.913
